The target of one series is T1, hERG ion channel (Homo sapiens, UniProt Q12809).
T1 construct: expressed in transfected cells; host or cells: HEK-293
Put plainly: cell-based. An excerpt:
Confirmation of interaction with the potassium channels was made by means of a functional cell test (patch clamp) that uses HEK-293 recombinant human cells that stably express the hERG ion channel, as described in Zhou Z. et al. Biophys. J. 1998; 74:230.
Confirmation of interaction with the potassium channels was made by means of the patch clamp test described in Zhou Z. et al. Biophys. J. 1998; 74:230 using the recombinant human cell line HEK-293, which stably expresses the hERG ion channel.

The target in another series is T2, 5-HT5A (Homo sapiens, UniProt P47898).
T2 construct: expressed in transfected cells
T2 sequence (P47898 whole entry): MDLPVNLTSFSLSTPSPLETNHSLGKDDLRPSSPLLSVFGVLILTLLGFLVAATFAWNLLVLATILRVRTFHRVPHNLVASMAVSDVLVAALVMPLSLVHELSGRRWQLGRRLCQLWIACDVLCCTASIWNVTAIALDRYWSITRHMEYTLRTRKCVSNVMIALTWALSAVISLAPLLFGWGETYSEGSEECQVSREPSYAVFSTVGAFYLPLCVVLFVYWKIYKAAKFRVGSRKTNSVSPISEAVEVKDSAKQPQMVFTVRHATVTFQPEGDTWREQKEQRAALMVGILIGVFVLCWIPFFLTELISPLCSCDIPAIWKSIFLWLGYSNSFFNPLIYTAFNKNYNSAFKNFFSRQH
Put plainly: Binding to the serotoninergic receptors. The conditions noted are these: purified membranes. How it is done:
(§1) Confirmation of the binding to the serotoninergic receptors was performed by means of the biochemical test on purified membranes from recombinant human cells that stably express the specific receptors or from animal tissues selected as described in particular for each type of serotoninergic receptor, in: Martin G. R. and Humphrey P. P. A. Neuropharmacol. 1994, 33:261; Hoyer D. Eur. J. Pharmacol. 1985, 118:1; Bonhaus DW et al. Br. J. Pharmacol. 1995, 115:622; Wolf WA et al. J. Neurochem. 1997, 69:1449; Boess F G et al. Neuropharmacol. 1997, 36:637; Mialet J et al. Br. J. Pharmacol. 2000; 129:771; Rees S et al. FEBS Lett. 1994, 355:242; Monsma F. J. et al. Mol. Pharmacol. 1993, 43:320; Roth BL et al. J. Pharmacol. Exp. Ther. 1994, 268: 1403; and Shearman L P et al. Am. J. Physiol. 1998, 275: C1621.
(§2) Confirmation of the binding to the serotoninergic receptors was made using purified membranes from selected animal tissues or from recombinant human cells that stably express the specific receptors, as described in: Martin G. R. and Humphrey P. P. A. Neuropharmacol. 1994, 33:261; Hoyer D. Eur. J. Pharmacol. 1985, 118:1; Bonhaus DW et al. Br. J. Pharmacol. 1995, 115:622; Wolf WA et al. J. Neurochem. 1997, 69:1449; Boess FG et al. Neuropharmacol. 1997, 36:637; Mialet J et al. Br. J. Pharmacol. 2000, 129:771; Rees S et al. FEBS Lett. 1994, 355:242; Monsma F. J. et al. Mol. Pharmacol. 1993, 43:320; Roth BL et al. J. Pharmacol. Exp. Ther. 1994, 268: 1403; and Shearman LP et al. Am. J. Physiol. 1998, 275: C1621.

The target in the next series is T3, 5-HT2B (Homo sapiens, UniProt P41595).
T3 construct: expressed in transfected cells
T3 sequence (P41595 whole entry): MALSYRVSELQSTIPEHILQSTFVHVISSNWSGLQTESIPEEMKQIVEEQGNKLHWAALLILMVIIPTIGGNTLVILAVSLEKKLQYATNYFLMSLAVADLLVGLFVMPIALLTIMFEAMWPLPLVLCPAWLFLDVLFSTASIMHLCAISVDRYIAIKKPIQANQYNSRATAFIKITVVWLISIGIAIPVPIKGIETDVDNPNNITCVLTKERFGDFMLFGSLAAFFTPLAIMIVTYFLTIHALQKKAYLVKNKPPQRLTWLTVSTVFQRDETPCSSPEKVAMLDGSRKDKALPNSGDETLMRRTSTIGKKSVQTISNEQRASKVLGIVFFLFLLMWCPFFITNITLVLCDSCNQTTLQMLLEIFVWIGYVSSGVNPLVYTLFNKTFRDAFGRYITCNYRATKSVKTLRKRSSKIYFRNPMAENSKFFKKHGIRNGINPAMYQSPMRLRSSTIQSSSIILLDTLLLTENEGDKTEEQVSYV
Nature of the series: Binding to the serotoninergic receptors. To be noted: purified membranes. How it is done:
as §1, §2

A further series concerns the target T4, 5-HT4 receptor (Homo sapiens, UniProt Q13639).
T4 construct: expressed in transfected cells
Put plainly: Binding to the serotoninergic receptors. How it is done:
as §1, §2

A further series addresses T5, 5-HT3 (UniProt P46098).
T5 sequence (P46098 1-478): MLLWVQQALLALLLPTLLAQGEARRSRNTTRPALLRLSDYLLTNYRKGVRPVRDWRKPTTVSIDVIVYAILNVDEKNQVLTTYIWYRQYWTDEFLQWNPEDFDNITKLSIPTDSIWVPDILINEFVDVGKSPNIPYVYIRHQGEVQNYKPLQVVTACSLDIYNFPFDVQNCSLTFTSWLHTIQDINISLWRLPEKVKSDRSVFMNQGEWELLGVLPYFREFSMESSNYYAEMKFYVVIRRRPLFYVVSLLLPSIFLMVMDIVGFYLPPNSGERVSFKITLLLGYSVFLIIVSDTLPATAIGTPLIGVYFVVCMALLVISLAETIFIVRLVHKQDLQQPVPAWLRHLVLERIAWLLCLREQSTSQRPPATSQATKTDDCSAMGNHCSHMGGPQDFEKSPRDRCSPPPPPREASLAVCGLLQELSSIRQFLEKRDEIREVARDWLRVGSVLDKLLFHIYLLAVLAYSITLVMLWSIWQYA
Nature of the series: Binding to the serotoninergic receptors. To be noted: purified membranes. The protocol: as §1, §2

A further series concerns the target T6, 5-HT2A (Homo sapiens, UniProt P28223).
T6 construct: expressed in transfected cells
Put plainly: Binding to the serotoninergic receptors. The conditions noted are these: purified membranes. The protocol: as §1, §2

Another series deals with 5-HT transporter - SERT (UniProt P31645). Put plainly: Binding to the serotoninergic receptors. The conditions noted are these: purified membranes. The protocol:
as §1, §2

For another series, the target named is T7, 5-HT2C (UniProt P28335).
T7 sequence (P28335 1-458): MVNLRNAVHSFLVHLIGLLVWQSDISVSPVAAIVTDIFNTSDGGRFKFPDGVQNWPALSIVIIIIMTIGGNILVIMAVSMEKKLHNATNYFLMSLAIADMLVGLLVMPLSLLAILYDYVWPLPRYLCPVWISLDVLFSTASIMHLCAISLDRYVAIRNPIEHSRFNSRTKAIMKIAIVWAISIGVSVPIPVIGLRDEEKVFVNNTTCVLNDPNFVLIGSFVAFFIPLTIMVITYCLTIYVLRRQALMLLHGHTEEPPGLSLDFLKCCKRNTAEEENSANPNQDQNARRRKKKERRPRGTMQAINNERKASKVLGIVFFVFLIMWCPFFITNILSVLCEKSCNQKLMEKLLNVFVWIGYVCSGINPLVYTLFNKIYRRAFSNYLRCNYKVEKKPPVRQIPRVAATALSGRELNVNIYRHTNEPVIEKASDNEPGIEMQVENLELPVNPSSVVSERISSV
Put plainly: Binding to the serotoninergic receptors. The conditions noted are these: purified membranes. The protocol: as §1, §2

The next series concerns the target 5-HT6 (UniProt P50406). Nature of the series: Binding to the serotoninergic receptors. To be noted: purified membranes. The protocol: as §1, §2
A further series concerns the target T8, 5-HT1B (Rattus norvegicus, UniProt P28564).
T8 construct: purified membranes from selected animal tissues; from tissue; host or cells: animal tissue membranes; rat brain inferred from Hoyer 1985
Put plainly: Binding to the serotoninergic receptors. The conditions noted are these: purified membranes. The protocol: as §1, §2

A further series deals with 5-HT7 (UniProt P34969). Put plainly: Binding to the serotoninergic receptors. To be noted: purified membranes. How it is done:
as §1, §2

The target of the next series is T9, 5-HT1A (Homo sapiens, UniProt P08908).
T9 sequence (P08908 1-422): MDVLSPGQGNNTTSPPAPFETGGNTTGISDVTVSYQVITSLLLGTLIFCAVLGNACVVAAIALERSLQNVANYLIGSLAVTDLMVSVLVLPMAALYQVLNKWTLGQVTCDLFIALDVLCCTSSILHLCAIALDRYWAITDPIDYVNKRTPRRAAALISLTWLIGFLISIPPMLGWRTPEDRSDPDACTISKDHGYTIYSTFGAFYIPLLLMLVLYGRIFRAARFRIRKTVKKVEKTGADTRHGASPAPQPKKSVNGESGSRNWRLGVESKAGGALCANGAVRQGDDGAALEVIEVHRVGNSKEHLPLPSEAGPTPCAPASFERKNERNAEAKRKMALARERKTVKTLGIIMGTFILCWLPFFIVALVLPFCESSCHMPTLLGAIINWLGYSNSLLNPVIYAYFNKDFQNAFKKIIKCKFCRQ
Nature of the series: Binding to the serotoninergic receptors. To be noted: purified membranes. The protocol: as §1, §2

T1 sequence (Q12809 whole entry): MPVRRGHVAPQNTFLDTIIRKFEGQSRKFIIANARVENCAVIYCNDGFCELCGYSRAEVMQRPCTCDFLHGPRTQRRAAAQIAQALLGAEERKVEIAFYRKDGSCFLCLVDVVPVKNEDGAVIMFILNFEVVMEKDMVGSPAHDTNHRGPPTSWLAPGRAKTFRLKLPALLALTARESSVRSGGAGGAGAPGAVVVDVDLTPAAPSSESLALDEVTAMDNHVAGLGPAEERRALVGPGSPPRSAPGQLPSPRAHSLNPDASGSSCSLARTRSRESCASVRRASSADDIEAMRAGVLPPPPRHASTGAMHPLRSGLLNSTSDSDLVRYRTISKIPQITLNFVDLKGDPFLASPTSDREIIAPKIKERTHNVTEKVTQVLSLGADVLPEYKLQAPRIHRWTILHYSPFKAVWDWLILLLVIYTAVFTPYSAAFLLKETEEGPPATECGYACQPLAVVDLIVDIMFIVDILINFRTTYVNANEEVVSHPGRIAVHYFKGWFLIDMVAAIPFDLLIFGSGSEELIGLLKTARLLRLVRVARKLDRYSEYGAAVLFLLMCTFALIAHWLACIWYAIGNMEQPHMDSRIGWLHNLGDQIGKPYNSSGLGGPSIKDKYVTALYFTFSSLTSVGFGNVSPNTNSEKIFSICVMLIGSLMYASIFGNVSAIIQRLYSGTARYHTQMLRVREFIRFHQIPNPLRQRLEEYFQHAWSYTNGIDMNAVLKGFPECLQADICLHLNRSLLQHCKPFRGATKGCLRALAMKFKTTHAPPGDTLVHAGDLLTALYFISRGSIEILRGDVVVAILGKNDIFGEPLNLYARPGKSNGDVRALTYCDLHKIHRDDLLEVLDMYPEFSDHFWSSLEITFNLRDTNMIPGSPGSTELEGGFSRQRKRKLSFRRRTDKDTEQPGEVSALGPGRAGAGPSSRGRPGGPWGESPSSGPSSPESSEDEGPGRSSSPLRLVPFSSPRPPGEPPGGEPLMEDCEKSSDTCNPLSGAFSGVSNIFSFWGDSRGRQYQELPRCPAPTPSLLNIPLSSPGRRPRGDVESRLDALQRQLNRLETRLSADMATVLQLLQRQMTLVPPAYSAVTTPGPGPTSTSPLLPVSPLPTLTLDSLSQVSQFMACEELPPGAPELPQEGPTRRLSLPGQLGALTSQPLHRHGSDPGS
T4 sequence (Q13639 1-378 isoform Q13639-5): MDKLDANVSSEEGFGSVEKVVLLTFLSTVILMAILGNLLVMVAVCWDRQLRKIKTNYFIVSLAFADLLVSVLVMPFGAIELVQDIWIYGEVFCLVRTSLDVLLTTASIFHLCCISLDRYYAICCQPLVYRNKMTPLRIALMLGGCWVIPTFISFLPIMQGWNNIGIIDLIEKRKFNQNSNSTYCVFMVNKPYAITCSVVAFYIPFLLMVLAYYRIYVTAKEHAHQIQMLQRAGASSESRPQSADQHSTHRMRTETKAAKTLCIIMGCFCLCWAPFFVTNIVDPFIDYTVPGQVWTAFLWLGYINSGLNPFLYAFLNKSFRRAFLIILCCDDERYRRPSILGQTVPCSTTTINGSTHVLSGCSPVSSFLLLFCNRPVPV
T6 sequence (P28223 whole entry): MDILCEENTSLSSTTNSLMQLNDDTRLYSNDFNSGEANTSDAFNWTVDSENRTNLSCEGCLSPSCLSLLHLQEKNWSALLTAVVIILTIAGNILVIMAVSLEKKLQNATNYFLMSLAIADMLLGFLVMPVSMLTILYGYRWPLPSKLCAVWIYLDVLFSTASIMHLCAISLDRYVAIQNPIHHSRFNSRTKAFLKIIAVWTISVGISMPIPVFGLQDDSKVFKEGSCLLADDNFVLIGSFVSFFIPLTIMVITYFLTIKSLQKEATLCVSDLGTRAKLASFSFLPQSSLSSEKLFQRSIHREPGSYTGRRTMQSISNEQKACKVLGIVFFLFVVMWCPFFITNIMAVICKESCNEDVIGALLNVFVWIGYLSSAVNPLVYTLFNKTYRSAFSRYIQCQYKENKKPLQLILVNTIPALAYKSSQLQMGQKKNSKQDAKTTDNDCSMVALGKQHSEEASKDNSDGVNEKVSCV
5-HT7, sequence (P34969 1-432 limits assumed): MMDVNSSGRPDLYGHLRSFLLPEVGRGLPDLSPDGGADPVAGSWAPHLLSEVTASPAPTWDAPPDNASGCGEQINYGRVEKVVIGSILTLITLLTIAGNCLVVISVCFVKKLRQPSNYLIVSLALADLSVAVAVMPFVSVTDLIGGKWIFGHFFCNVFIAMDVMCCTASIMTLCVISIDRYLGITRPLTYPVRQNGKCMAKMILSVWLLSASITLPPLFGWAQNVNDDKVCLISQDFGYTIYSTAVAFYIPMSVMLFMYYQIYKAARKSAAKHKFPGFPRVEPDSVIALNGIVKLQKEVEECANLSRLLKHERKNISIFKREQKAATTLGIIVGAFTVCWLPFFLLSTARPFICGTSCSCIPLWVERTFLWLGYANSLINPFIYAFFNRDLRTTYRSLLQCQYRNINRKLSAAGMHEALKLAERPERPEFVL
T8 sequence (P28564 whole entry): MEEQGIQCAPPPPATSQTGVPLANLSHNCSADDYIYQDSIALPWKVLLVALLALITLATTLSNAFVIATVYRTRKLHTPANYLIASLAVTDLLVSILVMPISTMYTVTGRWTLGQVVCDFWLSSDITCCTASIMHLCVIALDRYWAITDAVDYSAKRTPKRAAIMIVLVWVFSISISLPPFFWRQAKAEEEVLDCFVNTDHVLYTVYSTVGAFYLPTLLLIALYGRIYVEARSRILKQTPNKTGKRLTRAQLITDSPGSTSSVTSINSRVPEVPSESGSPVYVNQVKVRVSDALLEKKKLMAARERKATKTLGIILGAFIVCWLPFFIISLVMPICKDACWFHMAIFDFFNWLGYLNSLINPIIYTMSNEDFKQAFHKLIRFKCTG

By IC50 is commonly meant the concentration at which inhibition is half-maximal. Low values mean inhibition by little substance, high ones a need for much substance. Usually inhibition stands for the share of the control response that was lost under treatment. A high value points to a strong effect. Broadly, the melting point is the temperature of the solid-liquid transition. `CC(C)n1nc(C(=O)NCC2CCN(CCc3ccc(C(=O)O)cc3)CC2)c2ccccc21` [Compound 1, 4-{2-[4-({[(1-Isopropyl-1H-indazol-3-yl)carbonyl]amino}methyl)piperidin-1-yl]ethyl}benzoic acid] came in with a melting point of 179 to 181 °C. For the same compound, at hERG ion channel, the IC50 was above 50 µM. At hERG ion channel (human), this compound returned an inhibition at 0.01 µM of 0%, an inhibition at 0.1 µM of 0%, an inhibition at 1 µM of 0.9% and an inhibition at 10 µM of 6.5%. The inhibition at 50 µM on hERG ion channel (human) was determined as 18.8%. This compound also came in with an IC50 at 5-HT5A above 10 µM. Further, the IC50 on 5-HT2B is above 10 µM. At 5-HT4 receptor, this compound yielded an IC50 of 0.0008 µM. In addition, the “inhibition of binding to the 5-HT4 receptor (selectivity, in words)” value at 5-HT4 receptor (versus the other serotoninergic receptors) is listed as “selective inhibition of binding to the 5-HT4 receptor”. On 5-HT3, this compound had an IC50 above 10 µM. The compound also gave an IC50 at 5-HT2A above 10 µM. Moreover, at 5-HT transporter - SERT, the IC50 is above 10 µM. The same compound registered a concentration for half-maximal inhibition (IC50) on 5-HT2C above 10 µM. The same compound gave an IC50 at 5-HT6 above 10 µM. This compound also yielded an IC50 on 5-HT1B above 10 µM. On 5-HT7, this compound had a 50% inhibitory concentration (IC50) above 10 µM. Moreover, the IC50 at 5-HT1A is above 10 µM.

Values taken from US8455519B2, “Drug active in neuropathic pain” (Aziende Chimiche Riunite Angelini Francesco A.C.R.A.F. …, priority 2007, dated 2013).
